The text below walks through data of publication PMC10667233, “New cytotoxic dammarane type saponins from Ziziphus spina-christi” (Scientific Reports, 2023).

≈ marks a conversion by molar mass, not a printed value. Read-outs that look alike come from different tables or passages of the source.

For data set [1], the system named is breast cancer cell line MDA-MB-231. Set-up: method as in PMID 19960417. The conditions noted are these: 50 μmol/l, MDA-MB-231 in vitro; cited from earlier work.
The test system of the next data set is sarcoma S180. Set-up: method as in PMID 19960417. The conditions noted are these: 50 μmol/kg, mice implanted with sarcoma S180; cited from earlier work.
Another data set has as its system EBV-EA. The conditions noted are these: cited from earlier work.
The test system of a further data set is A549. Briefly: MTS cell viability, A549 lung cancer cells. The settings on record: Homo sapiens, read-out: IC50 (µg/mL) values. In kind it is cell-based. Here is the method: (§1) A549, U87, MDA-MB-231, and CT-26 cells were purchased from American Type Culture Collection (ATCC) (Manassas, VA, USA). The cells, A549 and CT-26 were cultured in RPMI-1640 supplemented with 1% Pen/Strep (100 U mL^–1, Gibco, Carlsbad, CA) and 10% FBS (Atlanta Biologicals, Flowery Branch, GA). While MDA-MB-231 and U87 cells were cultured in DMEM medium supplemented with 1% Pen/Strip and 10% FBS. Cells were incubated at 37 °C and 5% CO2 in humidified incubator (Sanyo Scientific Autoflow, Hudson, MA).
(§2) A549, U87, MDA-MB-231, and CT-26 cancer cells were plated in 96-well plates at a density of 2X10^4 cells/well in 100 μL of medium before the addition of different concentrations of the plant extracts. Untreated control group was incubated with^-100 µL/well of fresh media and^-methanol. After 24 h., the medium was aspirated and replaced by-100 µL of fresh media, and 20 µL of MTS^-reagent in each well (CellTiter 96^-Aqueous One^-Solution cell^-proliferation assay, Promega^-Corporation, Madison,^-WI,^-USA). The plates were then incubated at 37 °C with 5% CO2 for 2 h. The absorbance was measured at 490 nm using a Spectramax plus 384 Microplate reader (Molecular Devices, Sunnyvale, CA, USA). Relative cell viability values were expressed as the percentage of the absorbance from the treated wells compared to the control wells (untreated), given that the control wells viability was set to 100%. The cells were examined under a cell imaging system (EVOS FL Digital Microscope) using a 20X objective as well before getting rid of the plates. The half-maximal inhibitory concentrations (IC50) of pure compounds for four […] cancer cell lines were calculated.
(§3) Figure 3 The anticancer activities of the three pure compounds (1–3) isolated from Ziziphus spina-christi using the MTS assay on glioblastoma, breast cancer, lung, and colorectal carcinoma cells. Cancer cells lines A549 (a) U87 (b), MDA-MB-231 (c) and CT-26 […] were tested. […] Cells were stained with MTS reagents and cell survival was quantitated using the spectramax plate reader. […]

A further data set relates to CT-26. Briefly: MTS cell viability, CT-26 colorectal carcinoma cells. The data set is classed as cell-based. The settings on record: read-out: IC50 (µg/mL) values. Here is the method:
as §1, §2, §3

The test system of another data set is MDA-MB-231. The data set can be described thus: MTS cell viability, MDA-MB-231 breast cancer cells. In kind it is cell-based. The conditions noted are these: Homo sapiens, read-out: IC50 (µg/mL) values. Here is the method: as §1, §2, §3
The test system of the next data set is U87. Briefly: MTS cell viability, U87 glioblastoma cells. The data set is classed as cell-based. The conditions noted are these: Homo sapiens, U-87 MG, 24 h, read-out: IC50 (µg/mL) values. Here is the method:
as §1, §2, §3

A further data set relates to A549 cells. Set-up: method as in PMID 26922140. The conditions noted are these: concentration-dependent; cited from earlier work.

The term inhibition denotes the share of the control response that was lost under treatment. As to `CC(C)=CC1C[C@](C)(O)[C@@H]2[C@@H]3CC[C@@H]4[C@@]5(C)CC[C@H](O[C@@H]6OC[C@H](O)[C@H](O[C@@H]7O[C@H](CO)[C@@H](O)[C@H](O)[C@H]7O)[C@H]6O[C@@H]6O[C@@H](CO)[C@H](O)[C@H]6O)C(C)(C)[C@@H]5CC[C@@]4(C)[C@]34CO[C@@]2(C4)O1` (stereo partly drawn) [bacopaside VII], the “adhesion, migration, and matrigel invasion (in words)” value in data set [1] is on record as “markedly reduced”. The inhibition in the data set on sarcoma S180 is reported as 84.13%.
Consider `C=C(C)[C@@H]1CC[C@]2(C)[C@H](CC[C@@H]3[C@@H]([C@@](C)(O)CCC=C(C)C)CC[C@]32C)[C@@]1(C)CCC(=O)O` [dammarenolic acid], for which the IC50 with EBV-EA is given as 226 mol ratio/32 pmol TPA.
Take `CC(C)=CC1CC(C)(O)C2C3CCC4C5(C)CCC(OC6OCC(O)C(OC7OC(CO)C(OC(=O)C=Cc8ccc(O)cc8)C(O)C7O)C6OC6OC(C)C(O)C(O)C6O)C(C)(C)C5CCC4(C)C34COC2(C4)O1` (stereo not drawn) [Compound 1, Christinin E]: the IC50 with A549 (A549, MTS, 24 h) worked out at 9.53 ± 0.01 µg/mL (≈ 9 µM); with CT-26 (CT26, CT-26, MTS, 24 h), 0.7 ± 0.049 µg/mL (≈ 0.661 µM); in the data set with MDA-MB-231 (MDA-MB-231, MTS, 24 h) it was 6.02 ± 1.5 µg/mL (≈ 5.68 µM); in the data set on U87 (U87, MTS) it was 5.7 ± 1.63 µg/mL (≈ 5.38 µM).
On to gypenoside Jh1, for which the “cytotoxicity (in words)” value in the data set on A549 cells was “strong cytotoxicity”.
For the molecule `CC(C)=CC1CC(C)(O)C2C3CCC4C5(C)CCC(OC6OCC(O)C(OC7OC(CO)C(O)C(O)C7O)C6OC6OC(C)C(O)C(O)C6O)C(C)(C)C5CCC4(C)C34COC2(C4)O1` (stereo not drawn) [Compound 3, christinin A], the IC50 is 5.67 ± 1.05 µg/mL (≈ 6.21 µM) in the data set on A549 (A549, 24 h); 5.47 ± 1.3 µg/mL (≈ 5.99 µM) in the data set on CT-26 (CT26, 24 h); 9.3 ± 0.19 µg/mL (≈ 10.2 µM) with MDA-MB-231 (MDA-MB-231, 24 h); 7.28 ± 0.56 µg/mL (≈ 7.97 µM) in the data set with U87.
As for bacopaside É, the “adhesion, migration, and matrigel invasion (in words)” value in data set [1] is “markedly reduced”. The inhibition in the data set with sarcoma S180 was 90.52%.
`CC(C)=CC1CC(C)(O)C2C3CCC4C5(C)CCC(OC6OCC(O)C(OC7OC(CO)C(OC(=O)C=Cc8ccc(OC(=O)C(=O)O)cc8)C(O)C7O)C6OC6OC(C)C(O)C(O)C6O)C(C)(C)C5CCC4(C)C34COC2(C4)O1` (stereo not drawn) [Compound 2, Christinin F]: the IC50 in the data set with A549 (A549, MTS, 24 h) was found to be 4.89 ± 0.93 µg/mL (≈ 4.32 µM); in the data set with CT-26 (CT26, CT-26, MTS, 24 h) it was 7.21 ± 0.35 µg/mL (≈ 6.37 µM); with MDA-MB-231 (MDA-MB-231, MTS, 24 h), 5.81 ± 0.087 µg/mL (≈ 5.14 µM); with U87 (U87, MTS), 4.16 ± 0.87 µg/mL (≈ 3.68 µM).
